# Test results as given in PMC8667043, “First-in-Class Inhibitors of the Ribosomal Oxygenase MINA53” (Journal of Medicinal Chemistry, 2021).
# Entries after “also recorded” stand apart in the source; their conditions may differ. Like-named read-outs stand apart in the source and are kept apart here.
# Key:
# NO66 = molecular target: T1, NO66 (Homo sapiens, UniProt Q9H6W3); assay: NO66 MS (RapidFire) hydroxylation inhibition assay, Rpl8 peptide; type: biochemical
# T1 construct: histidine tag (TEV-cleavable) (cleaved yes); made in house; host or cells: E. coli BL21(DE3)-R3-pRARE2
# T1 sequence (Q9H6W3 183-641): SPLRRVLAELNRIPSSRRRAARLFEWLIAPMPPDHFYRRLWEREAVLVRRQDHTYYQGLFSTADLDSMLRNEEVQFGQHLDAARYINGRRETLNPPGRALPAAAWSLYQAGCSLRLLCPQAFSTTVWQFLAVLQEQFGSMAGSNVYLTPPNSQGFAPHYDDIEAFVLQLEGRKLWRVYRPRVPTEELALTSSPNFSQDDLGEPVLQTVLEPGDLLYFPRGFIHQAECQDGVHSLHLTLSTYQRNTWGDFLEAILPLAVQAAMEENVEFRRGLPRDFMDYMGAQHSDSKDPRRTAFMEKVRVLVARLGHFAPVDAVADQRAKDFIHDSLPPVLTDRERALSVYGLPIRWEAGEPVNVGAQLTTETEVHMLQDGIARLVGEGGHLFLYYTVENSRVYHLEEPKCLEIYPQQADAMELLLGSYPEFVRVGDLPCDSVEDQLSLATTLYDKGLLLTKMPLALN
# MINA53 = molecular target: T2, MINA53 (Homo sapiens, UniProt Q8IUF8); assay: MINA53 MS (RapidFire) hydroxylation inhibition assay, Rpl27a peptide; type: biochemical
# T2 construct: MINA53 (Met1-Val464 and Ala26-Val464); histidine tag (TEV-cleavable) (cleaved yes); made in house; host or cells: E. coli BL21(DE3)-R3-pRARE2
# T2 sequence (Q8IUF8 1-464 isoform Q8IUF8-4): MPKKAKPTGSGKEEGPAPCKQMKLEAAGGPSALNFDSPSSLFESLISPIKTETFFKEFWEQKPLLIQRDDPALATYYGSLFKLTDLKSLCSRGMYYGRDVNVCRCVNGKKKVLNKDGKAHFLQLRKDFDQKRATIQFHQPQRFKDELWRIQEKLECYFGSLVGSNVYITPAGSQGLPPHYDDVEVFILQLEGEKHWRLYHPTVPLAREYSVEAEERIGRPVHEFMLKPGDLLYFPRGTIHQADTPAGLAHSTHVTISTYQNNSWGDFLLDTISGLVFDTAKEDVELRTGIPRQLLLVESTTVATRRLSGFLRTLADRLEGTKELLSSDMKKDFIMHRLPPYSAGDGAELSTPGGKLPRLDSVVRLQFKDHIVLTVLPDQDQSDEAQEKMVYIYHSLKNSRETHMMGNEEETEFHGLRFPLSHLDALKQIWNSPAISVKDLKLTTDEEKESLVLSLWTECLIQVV
# MNK-45 gastric carcinoma = assay: MTT cell viability assay; type: cell-based, human; conditions: 72, 96, 120 h, 10 to 100 μM, 10′ to a similar extent as 10
# Protocol: (§1) Human commercially available established cancer cell lines HT-29 colon carcinoma (ATCC, HTB-38), U-87MG glioblastoma (ATCC, HTB-14), and MNK-45 gastric cancer (a gift from Dr. M. Broggini, Mario Negri Institute) were cultured in RPMI medium (Euroclone, Milan, IT) supplemented with 10% inactivated fetal bovine serum (HyClone, Thermo Scientific, South Logan, UT), 1% L-glutamine (Euroclone), and 100 μg/mL penicillin/streptomycin (Euroclone). HEK293T and HeLa cells were cultured in Dulbecco’s Modified Eagle Medium (DMEM, Gibco) supplemented with 10% (v/v) fetal bovine serum (FBS, Sigma) and 100 international units/mL (IU/mL) penicillin and 100 μg/mL streptomycin (Gibco). The cells were routinely tested for mycoplasma contamination and STR-authenticated.
# (§2) Twenty-four hours following seeding, exponentially growing cells were treated with the different compounds at concentrations ranging from 10 to 100 μM for 72–120 h. Aqueous DMSO (0.5%, v/v) was used as a control (untreated). Cell viability was determined by the 3-(4,5-dimethylthiazol-2-yl)-2,5-diphenyltetrazolium bromide (MTT) colorimetric assay (Sigma-Aldrich). In summary, exponentially growing cancer cells were seeded in sextuplicate in 96-well culture plates (1.5 × 10^3 cells/well). After 24 h, the compounds were added at concentrations ranging from 10 to 100 μM. The effect of compounds on cancer cell proliferation was assessed by measuring the MTT dye absorbance of the cells as reported.[52] For combination treatments, the cells were treated with each of three compounds, either alone or in combination with doxorubicin. In particular, U-87MG cells were treated with doxorubicin alone or in combination with different MINA53 inhibitors for 24 h. The effect of different compounds or combinations (drug concentration ratio 1:20, doxorubicin: compound) on U-87MG cancer cell viability was assessed by measuring the MTT dye absorbance of cells. The interaction between doxorubicin (Doxo) and different compounds was evaluated based on the combination index (CI) using the CI equation through CalcuSyn software (Biosoft, Cambridge, U.K.). Synergism CI < 0.9, additivity 0.9 < CI < 1.1, antagonism CI > 1.1.
# HT-29 colon carcinoma = assay: MTT cell viability assay; type: cell-based, human; conditions: 72, 96, 120 h, 10 to 100 μM, 10′ to a similar extent as 10
# Protocol: as §1, §2
# U-87MG malignant glioma = assay: MTT cell viability assay; type: cell-based, human; conditions: 72, 96, 120 h, 10 to 100 μM, 10′ to a similar extent as 10
# Protocol: as §1, §2
# PCAF = molecular target: T3, PCAF (Homo sapiens, UniProt Q92831); assay: HotSpot KAT assay; type: biochemical; conditions: means ± SD of three experiments, read-out: Residual Enzymatic Activity (%) PCAF
# T3 construct: purchased Reaction Biology Corporation, Malvern, PA, USA
# T3 sequence (Q92831 492-658): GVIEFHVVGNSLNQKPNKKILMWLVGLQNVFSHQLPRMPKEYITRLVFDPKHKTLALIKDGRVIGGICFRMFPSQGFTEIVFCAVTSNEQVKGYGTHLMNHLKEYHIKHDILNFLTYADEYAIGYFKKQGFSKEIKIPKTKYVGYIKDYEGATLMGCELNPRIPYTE
# Protocol: (§3) The ef fects of 1-13 on th e histone lysine acetyltr a nsferas e activity (KAT ) o f p300 and PCAF were
# (§4) determined using the HotSpot KAT assay ( Reaction Biology Corporation, Malvern, PA, USA)
# (§5) according to the supplier’s procedure. In brief, recombinant form s of catal ytic domains of PCAF
# (§6) NaCl, 0.1 mM EDTA, 1 mM DTT, 1 mM PMSF, 1% (v/v) DMSO) fo r 1 h at 30 °C in the presenc e
# (§7) or absence of various concentrations of the inhibitors. Histone H3 acetyl ation was assessed by
# (§8) liquid scintillation counting using a Tri-Carb 2800TR Liquid Scintillation Analyzer
# (§9) (PerkinElmer). Assays at fixed con centration doses were performed in triplicate and analyzed
# (§10) using Excel and GraphPad Prism 6.0 software (GraphPad Software Inc., San Diego, CA).
# p300 = molecular target: T4, p300 (Homo sapiens, UniProt Q09472); assay: HotSpot KAT assay; type: biochemical; conditions: read-out: Residual Enzymatic Activity (%) p300
# T4 construct: purchased Reaction Biology Corporation, Malvern, PA, USA
# T4 sequence (Q09472 1284-1673): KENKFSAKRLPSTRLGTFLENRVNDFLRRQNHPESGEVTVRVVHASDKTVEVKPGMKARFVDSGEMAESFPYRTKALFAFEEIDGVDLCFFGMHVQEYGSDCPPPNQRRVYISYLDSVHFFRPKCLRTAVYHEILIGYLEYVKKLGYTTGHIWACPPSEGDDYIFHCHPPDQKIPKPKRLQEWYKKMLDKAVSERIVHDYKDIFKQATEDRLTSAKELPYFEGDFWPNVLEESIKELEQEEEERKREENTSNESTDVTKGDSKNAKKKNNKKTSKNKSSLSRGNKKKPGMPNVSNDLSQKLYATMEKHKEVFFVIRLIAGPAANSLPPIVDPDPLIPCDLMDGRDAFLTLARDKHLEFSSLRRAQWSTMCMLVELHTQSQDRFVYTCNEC
# Protocol: as §3, §4, §5, §6, §7, §8, §9, §10
# U-87MG cells = assay: MTT cell viability, alone or in combination with doxorubicin; combination index; type: cell-based, human; conditions: 24 h
# Protocol: as §2
# [1] = NO66 (Ser183-Asn641), means ± 95% confidence, n = 3, read-out: IC50 value, NO66 (assay validation, Figure S7)
# [2] = Table S12, read-out: NO66 IC50 (Table S12)
# [3] = MINA53 (Met1-Val464), means ± 95% confidence, n = 3, read-out: IC50 value, MINA53 (assay validation, Figure S7)
compound,measurement,setting,value
"O=C(O)c1ccnc(C(=O)O)c1 [2,4-PDCA, pyridine-2,4-dicarboxylate, reference compound]",IC50,NO66; [1],0.11 µM
same,IC50,NO66; [2],0.168 µM
"COC(=O)c1cnc(SCCCc2ccccc2)[nH]c1=O [10′, Methyl 2-((3-phenylpropyl)thio)-3,4-dihydro-4-oxopyrimidine-5-carboxylate]",IC50,"MINA53; Table S12, read-out: MINA53 IC50 (Table S12)",> 100 µM
same,IC50,NO66; [2],20.1 µM
same,"effect on cell viability, MNK-45",MNK-45 gastric carcinoma,reduced the cell viability
same,"effect on cell viability, HT-29",HT-29 colon carcinoma,reduced the cell viability
same,"effect on cell viability, U-87MG",U-87MG malignant glioma,reduced the cell viability
"CCCCCCCCCCCCCCCc1cccc(O)c1C(=O)O [Anacardic Acid (AA), reference compound]",remaining activity at 100 µM,PCAF,4.7 ± 0.3%
same,remaining activity at 100 µM,p300,0.9 ± 0.01%
"O=C(O)CCNc1cc(N2CCc3ccccc3CC2)nc(-c2ccccn2)n1 [GSK-J1, reference compound]",inhibition of MINA53 at 100 μM,MINA53; at 100 μM,did not show significant inhibition; also recorded: No inhibition
same,inhibition of NO66 at 100 μM,NO66; at 100 μM,did not show significant inhibition
same,inhibition at 100 µM,NO66; read-out: inhibition of NO66 at 100 μM,30%
"O=C(O)c1ccc(O)c2ncccc12 [IOX-1, reference compound]",IC50,MINA53; [3],102 µM
same,IC50,NO66; [1],38.5 µM
"O=C(O)CNC(=O)C(=O)O [NOG, N-oxalylglycine, reference compound]",IC50,MINA53; [3],1.8 µM
same,IC50,NO66; [1],3.5 µM
"COc1cccc2c1C(=O)c1c(O)c3c(c(O)c1C2=O)C[C@@](O)(C(=O)CO)C[C@@H]3O[C@H]1C[C@H](N)[C@H](O)[C@H](C)O1 [doxorubicin, reference compound]","cell viability, single compound treatment",U-87MG cells,reduced cell viability in a dose-dependent manner
